Results published in PubChem BioAssay (NCI).
“And” between values parts separate entries of the source, which are not always exact repeats. Identical values can stand only once.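 Briefly, cells in 96-well plates were exposed to five compound concentrations for 48 h, and endpoints were estimated by linear interpolation. The concentration for 50% growth inhibition is given as GI50. The concentration for full growth arrest is given as TGI.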

How the values were obtained:
Experiment in all cases: NCI-60 cell line screen, 48 h
[1] = system: LXFL 529 NSCLC
[2] = system: SK-MEL-28 melanoma
[3] = system: HL-60(TB) leukemia
[4] = system: RPMI-8226 leukemia
[5] = system: XF 498 CNS
[6] = system: EKVX NSCLC
[7] = system: K-562 leukemia
[8] = system: HOP-92 NSCLC
[9] = system: SN12C renal
[10] = system: OVCAR-3 ovarian
[11] = system: SF-539 CNS
[12] = system: OVCAR-4 ovarian
[13] = system: TK-10 renal
[14] = system: SK-MEL-2 melanoma
[15] = system: UO-31 renal
[16] = system: HCT-15 colon
[17] = system: KM20L2 colon
[18] = system: SNB-78 CNS
[19] = system: LOX IMVI melanoma
[20] = system: CCRF-CEM leukemia
[21] = system: CAKI-1 renal
[22] = system: UACC-62 melanoma
[23] = system: NCI-H522 lung
[24] = system: SF-268 CNS
[25] = system: 786-0 renal
[26] = system: M19-MEL melanoma
[27] = system: NCI-H23 lung
[28] = system: KM12 colon
[29] = system: A549 NSCLC
[30] = system: NCI-H460 lung
[31] = system: SW-620 colon
[32] = system: U251 CNS
[33] = system: MALME-3M melanoma
[34] = system: SNB-19 CNS
[35] = system: DMS 273 small cell lung
[36] = system: SNB-75 CNS
[37] = system: NCI-H226 lung
[38] = system: ACHN renal
[39] = system: HCT-116 colon
[40] = system: M14 melanoma
[41] = system: OVCAR-8 ovarian
[42] = system: HOP-62 NSCLC
[43] = system: SR leukemia
[44] = system: UACC-257 melanoma
[45] = system: COLO 205 colon
[46] = system: DLD-1 colon
[47] = system: SK-MEL-5 melanoma
[48] = system: DMS 114 small cell lung
[49] = system: HCC-2998 colon
[50] = system: MOLT-4 leukemia
[51] = system: A498 renal
[52] = system: OVCAR-5 ovarian
[53] = system: RXF 393 renal
[54] = system: DU-145 prostate
[55] = system: MDA-N
[56] = system: NCI/ADR-RES ovarian
[57] = system: SF-295 CNS
[58] = system: IGROV1 ovarian
[59] = system: SK-OV-3 ovarian
[60] = system: HS 578T breast
[61] = system: MCF7 breast
[62] = system: MDA-MB-435
[63] = system: HT29 colon
[64] = system: T-47D breast
[65] = system: BT-549 breast
[66] = system: PC-3 prostate
[67] = system: MDA-MB-231 breast

## CCN=C(NNc1ccc([N+](=O)[O-])cc1)P(=O)(OC(C)C)OC(C)C
[1]
  TGI: > 100 µM
[2]
  TGI: > 100 µM
[3]
  TGI: > 100 µM
[4]
  TGI: > 100 µM
[5]
  TGI: > 100 µM
[6]
  TGI: > 100 µM
[7]
  TGI: > 100 µM
[8]
  TGI: > 100 µM
[9]
  TGI: > 100 µM
[10]
  TGI: > 100 µM
[11]
  TGI: > 100 µM
[12]
  TGI: > 100 µM
[13]
  TGI: > 100 µM
[14]
  TGI: > 100 µM
[15]
  TGI: > 100 µM
[16]
  TGI: > 100 µM
[17]
  TGI: > 100 µM
[18]
  TGI: > 100 µM
[19]
  TGI: > 100 µM
[20]
  TGI: > 100 µM
[21]
  TGI: > 100 µM
[22]
  TGI: > 100 µM
[23]
  TGI: > 100 µM
[24]
  TGI: > 100 µM
[25]
  TGI: > 100 µM
[26]
  TGI: > 100 µM
[27]
  TGI: > 100 µM
[28]
  TGI: > 100 µM
[29]
  TGI: > 100 µM
[30]
  TGI: > 100 µM
[31]
  TGI: > 100 µM
[32]
  TGI: > 100 µM
[33]
  TGI: > 100 µM
[34]
  TGI: > 100 µM
[35]
  TGI: > 100 µM
[36]
  TGI: > 100 µM
[37]
  TGI: > 100 µM
[38]
  TGI: > 100 µM
[39]
  TGI: > 100 µM
[40]
  TGI: > 100 µM
[41]
  TGI: > 100 µM
[42]
  TGI: > 100 µM
[43]
  TGI: > 100 µM
[44]
  TGI: > 100 µM
[45]
  TGI: > 100 µM
[46]
  TGI: > 100 µM
[47]
  TGI: > 100 µM
[48]
  TGI: > 100 µM
[49]
  TGI: > 100 µM
[50]
  TGI: > 100 µM
[51]
  TGI: > 100 µM
[52]
  TGI: > 100 µM

## O=c1[nH]/c(=C/c2ccc(OCc3ccccc3)cn2)c(=O)[nH]/c1=C/c1ccc([N+](=O)[O-])cc1
[2]
  TGI: > 100 µM
[53]
  TGI: > 100 µM
[3]
  TGI: > 100 µM
[4]
  TGI: > 100 µM
[54]
  TGI: > 100 µM
[6]
  TGI: > 100 µM
[7]
  TGI: > 100 µM
[8]
  TGI: > 100 µM
[55]
  TGI: > 100 µM
[9]
  TGI: > 100 µM
[56]
  TGI: > 100 µM
[10]
  TGI: > 100 µM
[11]
  TGI: > 100 µM
[12]
  TGI: > 100 µM
[57]
  TGI: > 100 µM
[13]
  TGI: > 100 µM
[58]
  TGI: > 100 µM
[14]
  TGI: > 100 µM
[15]
  TGI: > 100 µM
[16]
  TGI: > 100 µM
[59]
  TGI: > 100 µM
[60]
  TGI: > 78.4 µM
[61]
  TGI: > 100 µM
[19]
  TGI: > 100 µM
[20]
  TGI: > 100 µM
[21]
  TGI: > 73.1 µM
[22]
  TGI: > 100 µM
[23]
  TGI: > 100 µM
[62]
  TGI: > 100 µM
[63]
  TGI: > 100 µM
[24]
  TGI: > 100 µM
[25]
  TGI: > 100 µM
[27]
  TGI: > 100 µM
[28]
  TGI: > 100 µM
[29]
  TGI: > 100 µM
[30]
  TGI: > 100 µM
[31]
  TGI: > 100 µM
[32]
  TGI: > 100 µM
[33]
  TGI: > 100 µM
[34]
  TGI: > 100 µM
[36]
  TGI: 70.2 µM
[37]
  TGI: > 100 µM
[38]
  TGI: > 100 µM
[64]
  TGI: > 100 µM
[39]
  TGI: > 100 µM
[40]
  TGI: > 100 µM
[41]
  TGI: > 100 µM
[42]
  TGI: > 100 µM
[43]
  TGI: > 100 µM
[65]
  TGI: > 100 µM
[66]
  TGI: > 100 µM
[44]
  TGI: > 100 µM
[45]
  TGI: > 100 µM
[67]
  TGI: > 100 µM
[47]
  TGI: > 100 µM
[49]
  TGI: > 100 µM
[50]
  TGI: > 100 µM
[51]
  TGI: > 84.3 µM
[52]
  TGI: > 100 µM

## CCOC(=O)c1[nH]c(Br)c(-c2ccc(Br)cc2)c1Br
[2]
  TGI: 22.1 µM
[53]
  TGI: 8.14 µM
[3]
  GI50: 0.207 µM
  TGI: 0.596 µM
[4]
  GI50: 0.357 µM
  TGI: 3.92 µM
[54]
  GI50: 2.19 µM
  TGI: 55.8 µM
[6]
  GI50: 0.852 µM
  TGI: 17.3 µM
[7]
  GI50: 0.193 µM
  TGI: 1.12 µM
[8]
  GI50: 1.58 µM
  TGI: 7.86 µM and 7.98 µM
[55]
  GI50: 0.0979 µM
  TGI: 0.505 µM and 0.273 µM
[9]
  GI50: 0.502 µM
  TGI: 4.75 µM
[56]
  GI50: 0.407 µM
[10]
  GI50: 0.37 µM
  TGI: 0.759 µM and 1.61 µM
[11]
  GI50: 0.298 µM
  TGI: 1.85 µM and 0.858 µM
[12]
  TGI: 3.6 µM and 3.5 µM
[57]
  GI50: 0.145 µM
  TGI: 0.763 µM and 0.815 µM
[13]
  GI50: 2.34 µM
  TGI: 9.99 µM and 11.3 µM
[58]
  GI50: 0.851 µM
  TGI: 6.34 µM
[14]
  TGI: 2.53 µM
[15]
  GI50: 1.13 µM
  TGI: 5.71 µM and 8.57 µM
[16]
  GI50: 0.25 µM
  TGI: > 100 µM
[59]
  GI50: 0.967 µM
  TGI: 6.28 µM
[60]
  TGI: 13.2 µM
[61]
  GI50: 0.895 µM
  TGI: > 100 µM
[19]
  GI50: 0.641 µM
  TGI: 5.29 µM and 12.4 µM
[20]
  GI50: 0.278 µM
  TGI: 1.11 µM
[21]
  GI50: 0.49 µM
  TGI: 3.06 µM and 2.62 µM
[22]
  GI50: 0.362 µM
[23]
  GI50: 0.178 µM
  TGI: 3.42 µM and 0.52 µM
[62]
  GI50: 0.0997 µM
  TGI: 0.546 µM and 0.289 µM
[63]
  TGI: 1.32 µM and 1.62 µM
[24]
  GI50: 0.836 µM
  TGI: 34.8 µM
[25]
  GI50: 0.535 µM
  TGI: 1.92 µM and 2.72 µM
[27]
  GI50: 2.48 µM
  TGI: 6.94 µM and 14.3 µM
[28]
  GI50: 0.302 µM
  TGI: 16 µM
[29]
  GI50: 8.15 µM
  TGI: 29.8 µM
[30]
  TGI: > 100 µM
[31]
  TGI: 14 µM
[32]
  GI50: 0.394 µM
  TGI: 3.55 µM and 1.93 µM
[33]
  GI50: 0.46 µM
  TGI: 15.8 µM
[34]
  GI50: 0.454 µM
  TGI: 10.4 µM
[36]
  GI50: 0.461 µM
  TGI: 2.68 µM and 4.41 µM
[37]
  TGI: 6.88 µM
[38]
  GI50: 0.929 µM
  TGI: 3.63 µM and 8.45 µM
[64]
  GI50: 2.66 µM
  TGI: 65.7 µM
[39]
  GI50: 0.445 µM
  TGI: 1.92 µM and 10.6 µM
[40]
  TGI: 17.9 µM
[41]
  TGI: 2.65 µM and 2.42 µM
[42]
  GI50: 0.514 µM
  TGI: 4.74 µM and 2.81 µM
[43]
  GI50: 0.199 µM
  TGI: 11.1 µM
[65]
  GI50: 8.52 µM
[66]
  GI50: 1.25 µM
  TGI: 15.5 µM
[44]
  GI50: 0.597 µM
  TGI: 42.9 µM
[45]
  TGI: 2.54 µM and 1.85 µM
[67]
  GI50: 0.782 µM
  TGI: 7.07 µM
[47]
  TGI: 19.1 µM
[49]
  GI50: 11.6 µM
  TGI: > 100 µM
[50]
  TGI: 11.4 µM
[51]
  GI50: 0.288 µM
  TGI: 5.28 µM and 1.22 µM
[52]
  GI50: 5.77 µM
  TGI: > 100 µM
